From patent US12209085B2, “RET inhibitors, pharmaceutical compositions and uses thereof” (SUNSHINE LAKE PHARMA CO., LTD., priority 2018, dated 2025)

What was measured:
[1] = molecular target: Ret wt (Homo sapiens (Human), UniProt P07949); assay: HTRF kinase inhibition assay, Ret wt; type: biochemical; settings: HTRF method
Text: (§1) • 1. […] 1) • 18) Echo (Labcyte, 550) • 3.
(§2) [formula] • Ratiopositive control: average of CEP-32496 readings in all positive control wells • Rationegative control: average of DMSO readings in all negative control wells • Wherein, the chemical name of CEP-32496 is: N-[3-[(6,7-dimethoxy-4-quinazolinyl)oxy]phenyl]-N′-[5-(2,2,2-trifluoro-1,1-dimethylethyl)-3-isoxazolyl]urea. • 4.3 Calculation of the IC50 and Drawing of the inhibition curve of the compound: • The IC50 (half inhibitory concentration) of the compound was obtained using the following non-linear fitting formula: Data analysis was performed using Graphpad 6.0 software. Y=Bottom+(Top−Bottom)/(1+10^((Log IC50−X)*Hill Slope)) • X: compound concentration log value Y: inhibition, % • 5.

[2] = molecular target: Ret V804M (Homo sapiens (Human), UniProt P07949, V804M); assay: HTRF kinase inhibition assay, Ret V804M; type: biochemical; settings: HTRF method
Ret V804M, sequence (P07949 29-1114 V804M): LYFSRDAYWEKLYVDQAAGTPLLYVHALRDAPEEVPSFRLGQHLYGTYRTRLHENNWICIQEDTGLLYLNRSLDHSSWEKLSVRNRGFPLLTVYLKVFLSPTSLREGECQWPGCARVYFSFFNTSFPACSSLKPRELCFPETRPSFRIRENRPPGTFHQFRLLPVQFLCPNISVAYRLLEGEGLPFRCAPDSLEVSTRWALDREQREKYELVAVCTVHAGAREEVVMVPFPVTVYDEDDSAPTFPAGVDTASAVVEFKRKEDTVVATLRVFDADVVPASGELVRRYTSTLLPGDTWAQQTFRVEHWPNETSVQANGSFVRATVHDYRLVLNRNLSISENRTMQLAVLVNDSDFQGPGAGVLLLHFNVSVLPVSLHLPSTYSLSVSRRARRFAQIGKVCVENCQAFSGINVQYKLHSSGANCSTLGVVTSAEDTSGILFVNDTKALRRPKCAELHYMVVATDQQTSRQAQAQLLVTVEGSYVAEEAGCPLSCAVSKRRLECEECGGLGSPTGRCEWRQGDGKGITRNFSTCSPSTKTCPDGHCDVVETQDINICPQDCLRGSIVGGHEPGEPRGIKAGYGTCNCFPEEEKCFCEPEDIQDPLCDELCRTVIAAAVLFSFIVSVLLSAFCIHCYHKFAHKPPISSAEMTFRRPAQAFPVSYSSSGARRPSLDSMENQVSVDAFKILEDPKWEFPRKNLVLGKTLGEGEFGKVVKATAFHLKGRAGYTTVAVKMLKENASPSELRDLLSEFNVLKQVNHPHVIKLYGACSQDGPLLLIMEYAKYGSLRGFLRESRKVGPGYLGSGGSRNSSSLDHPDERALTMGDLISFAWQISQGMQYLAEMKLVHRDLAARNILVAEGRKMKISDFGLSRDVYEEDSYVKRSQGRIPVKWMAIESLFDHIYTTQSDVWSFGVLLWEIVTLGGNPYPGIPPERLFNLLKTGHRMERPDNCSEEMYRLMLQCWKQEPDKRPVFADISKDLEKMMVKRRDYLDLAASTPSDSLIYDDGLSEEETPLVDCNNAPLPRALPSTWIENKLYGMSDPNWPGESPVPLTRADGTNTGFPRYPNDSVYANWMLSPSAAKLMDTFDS
Text: as §1, §2

Ret wt, sequence (P07949 29-1114): as the sequence (P07949 29-1114 V804M) above, with M776V counted along it

| Structure (SMILES) | IC50 [1] [nM] | IC50 [2] [nM] |
| --- | --- | --- |
| COc1cc(C#CCN2CCN(c3ccc(-c4cc(-c5cnn(C)c5)cn5ncc(C#N)c45)cn3)CC2)ccn1 [Example 243, 4-(6-(4-(3-(2-methoxypyridin-4-yl)prop-2-yn-1-yl)piperazin-1-yl)pyridin-3-yl)-6-(1-methyl-1H-pyrazol-4-yl)pyrazolo[1,5-a]pyridine-3-carbonitrile] | 3.51 | 37.8 |
| Cn1cc(-c2cc(-c3ccc(N4CC5CC(C4)N5CC#Cc4ccccn4)nc3)c3c(C#N)cnn3c2)cn1 [Example 244] | 0.15 | 0.27 |
| Cn1cc(-c2cc(-c3ccc(N4CC5CC(C4)N5CC#Cc4ccncc4)nc3)c3c(C#N)cnn3c2)cn1 [Example 245, 6-(1-methyl-1H-pyrazol-4-yl)-4-(6-(6-(3-(pyridin-4-yl)propan-2-yn-1-yl)-3,6-diazabicyclo[3.1.1]heptan-3-yl)pyridin-3-yl)pyrazole[1,5-a]pyridine-3-carbonitrile] | 0.65 | 10.7 |
| Cn1cc(-c2cc(-c3ccc(N4CCN(CC#Cc5ccc(C(F)(F)F)cc5)CC4)nc3)c3c(C#N)cnn3c2)cn1 [Example 246, 6-(1-methyl-1H-pyrazol-4-yl)-4-(6-(4-(3-(4-(trifluoromethyl)phenyl)prop-2-yn-1-yl)piperazine-1-yl)pyridin-3-yl)pyrazolo[1,5-a]pyridine-3-carbonitrile] | 7.06 | 198 |
| Cn1cc(-c2cc(-c3ccc(N4CCN(CC#Cc5ccccn5)CC4)nc3)c3c(C#N)cnn3c2)cn1 [Example 247, 6-(1-methylpyrazol-4-yl)-4-[6-[4-[3-(2-pyridyl)prop-2-ynyl]piperazin-1-yl]-3-pyridyl]pyrazolo[1,5-a]pyridine-3-carbonitrile] | 0.15 | 1.94 |
| Cn1cc(-c2cc(-c3ccc(N4CCN(CC#Cc5cccnc5)CC4)nc3)c3c(C#N)cnn3c2)cn1 [Example 248, 6-(1-methylpyrazol-4-yl)-4-[6-[4-[3-(3-pyridyl)prop-2-ynyl]piperazin-1-yl]-3-pyridyl]pyrazolo[1,5-a]pyridine-3-carbonitrile] | 0.58 | 5.76 |
| Cn1cc(-c2cc(-c3ccc(N4CC5CC(C4)N5CC#Cc4cccnc4)nc3)c3c(C#N)cnn3c2)cn1 [Example 249, 6-(1-methylpyrazol-4-yl)-4-[6-[6-[3-(3-pyridyl)prop-2-ynyl]-3,6-diazabicyclo[3.1.1]heptan-3-yl]-3-pyridyl]pyrazolo[1,5-a]pyridine-3-carbonitrile] | 0.39 | 1.77 |
| Cn1cc(-c2cc(-c3ccc(N4CC5CC(C4)N5CC#Cc4ccccc4)nc3)c3c(C#N)cnn3c2)cn1 [Example 250, 6-(1-methyl-1H-pyrazol-4-yl)-4-(6-(6-(3-phenylprop-2-yn-1-yl)-3,6-diazabicyclo[3.1.1]heptanpyridin-3-yl)pyridin-3-yl)pyrazolo[1,5-a]pyridine-3-carbonitrile] | 0.14 | 0.88 |
| COc1ccc(C#CCN2CCN(c3ccc(-c4cc(-c5cnn(C)c5)cn5ncc(C#N)c45)cn3)CC2)cc1 [Example 251, 4-(6-(4-(3-(4-methoxyphenyl)prop-2-yn-1-yl)piperazin-1-yl)pyridin-3-yl)-6-(1-methyl-1H-pyrazolpyridin-4-yl)pyrazolo[1,5-a]pyridine-3-carbonitrile] | 2.41 | 27.9 |
| COc1ccnc(C#CCN2CCN(c3ccc(-c4cc(-c5cnn(C)c5)cn5ncc(C#N)c45)cn3)CC2)c1 [Example 252, 4-(6-(4-(3-(4-methoxypyridin-2-yl)propan-2-ynyl-1-yl)piperazin-1-yl)pyridin-3-yl)-6-(1-methyl-1H-pyrazolin-4-yl)pyrazole[1,5-a]pyridine-3-carbonitrile] | 0.25 | 3.21 |
| Cn1cc(-c2cc(-c3ccc(N4CCN(CC#Cc5ccccc5)CC4)nc3)c3c(C#N)cnn3c2)cn1 [Example 253, 6-(1-methyl-1H-pyrazol-4-yl)-4-(6-(4-(3-phenylprop-2-yn-1-yl)piperazin-1-yl)pyridine-3-yl)pyrazolo[1,5-a]pyridine-3-carbonitrile] | 0.91 | 5.47 |
| COc1cncc(C#CCN2CCN(c3ccc(-c4cc(-c5cnn(C)c5)cn5ncc(C#N)c45)cn3)CC2)c1 [Example 254, 4-(6-(4-(3-(5-methoxypyridin-3-yl)prop-2-yn-1-yl)piperazin-1-yl)pyridin-3-yl)-6-(1-methyl-1H-pyrazol-4-yl)pyrazolo[1,5-a]pyridine-3-carbonitrile] | 3.57 | 18.3 |
| Cn1cc(-c2cc(-c3ccc(N4CCN(CC#Cc5cccnc5F)CC4)nc3)c3c(C#N)cnn3c2)cn1 [Example 255, 4-[6-[4-[3-(2-fluoro-3-pyridyl)prop-2-ynyl]piperazin-1-yl]-3-pyridyl]-6-(1-methylpyrazol-4-yl)pyrazolo[1,5-a]pyridine-3-carbonitrile] | 0.57 | 4.11 |
| Cn1cc(-c2cc(-c3ccc(N4CC5CC(C4)N5CC#Cc4cccnc4F)nc3)c3c(C#N)cnn3c2)cn1 [Example 256, 4-[6-[6-[3-(2-fluoro-3-pyridyl)prop-2-ynyl]-3,6-diazabicyclo[3.1.1]heptan-3-yl]3-pyridyl]-6-(1-methylpyrazol-4-yl)pyrazolo[1,5-a]pyridine-3-carbonitrile] | 0.14 | 0.44 |
| Cn1cc(-c2cc(-c3ccc(N4CCN(CC#Cc5ncccc5F)CC4)nc3)c3c(C#N)cnn3c2)cn1 [Example 257, 4-(6-(6-(3-(3-fluoropyridin-2-yl)prop-2-yn-1-yl)piperazin-3-yl)pyridin-3-yl)-6-(1-methyl-1H-pyrazol-4-yl)pyrazoline[1,5-a]pyridine-3-carbonitrile] | 0.17 | 0.74 |
| Cn1cc(-c2cc(-c3ccc(N4CC5CC(C4)N5CC#Cc4ncccc4F)nc3)c3c(C#N)cnn3c2)cn1 [Example 258, 4-(6-(6-(3-(3-fluoropyridin-2-yl)prop-2-yn-1-yl)-3,6-diazabicyclo[3.1.1]heptane-3-yl)pyridin-3-yl)-6-(1-methyl-1H-pyrazol-4-yl)pyrazoline[1,5-a]pyridin-3-carbonitrile] | 0.15 | 0.21 |
| Cn1cc(-c2cc(-c3ccc(N4CC5CC(C4)N5CC#Cc4cncc(F)c4)nc3)c3c(C#N)cnn3c2)cn1 [Example 259, 4-(6-(6-(3-(5-fluoropyridin-3-yl)prop-2-yn-1-yl)-3,6-diazabicyclo[3.1.1]heptane-3-yl)pyridin-3-yl)-6-(1-methyl-1H-pyrazol-4-yl)pyrazolo[1,5-a]pyridin-3-carbonitrile] | 0.16 | 0.91 |
| Cn1cc(-c2cc(-c3ccc(N4CCN(CC#Cc5ccc(F)nc5)CC4)nc3)c3c(C#N)cnn3c2)cn1 [Example 261, 4-[6-[4-[3-(6-fluoro-3-pyridyl)prop-2-ynyl]piperazin-1-yl]-3-pyridyl]-6-(1-methylpyrazol-4-yl)pyrazolo[1,5-a]pyridine-3-carbonitrile] | 3.1 | 5.1 |
| Cn1cc(-c2cc(-c3ccc(N4CC5CC(C4)N5CC#Cc4ccc(F)nc4)nc3)c3c(C#N)cnn3c2)cn1 [Example 262, 4-[6-[6-[3-(6-fluoro-3-pyridyl)prop-2-ynyl]-3,6-diazabicyclo[3.1.1]heptan-3-yl]3-pyridyl]-6-(1-methylpyrazol-4-yl)pyrazolo[1,5-a]pyridine-3-carbonitrile] | 0.2 | 1.92 |
| Cn1cc(-c2cc(-c3ccc(N4CCN(CC#Cc5ccncc5)CC4)nc3)c3c(C#N)cnn3c2)cn1 [Example 263, 6-(1-methyl-1H-pyrazol-4-yl)-4-(6-(4-(3-(pyridin-4-yl)prop-2-yn-1-yl)piperazin-1-yl)pyridine-3-yl)pyrazolo[1,5-a]pyridine-3-carbonitrile] | 2.5 | 31.4 |
| Cn1cc(-c2cc(-c3ccc(N4CCN(CC#Cc5cncc(C(F)(F)F)c5)CC4)nc3)c3c(C#N)cnn3c2)cn1 [Example 265] | 3.65 | 69.6 |
| COc1cncc(C#CC(=O)N2C3CC2CN(c2ccc(-c4cc(-c5cnn(C)c5)cn5ncc(C#N)c45)cn2)C3)c1 [Example 270, 4-(6-(6-(3-(5-methoxypyridin-3-yl)propioloyl)-3,6-diazabicyclo[3.1.1]heptan-3-yl)pyridin-3-yl)-6-(1-methyl-1H-pyrazol-4-yl)pyrazolo[1,5-a]pyridine-3-carbonitrile] | 1.1 | 4.9 |
| Cn1cc(-c2cc(-c3ccc(N4CC5CC(C4)N5C(=O)C#Cc4ccccc4)nc3)c3c(C#N)cnn3c2)cn1 [Example 271, 6-(1-methyl-1H-pyrazol-4-yl)-4-(6-(6-(3-phenylpropioloyl)-3,6-diazabicyclo[3.1.1]heptane-3-yl)pyridin-3-yl)pyrazolo[1,5-a]pyridine-3-carbonitrile] | 5.82 | 74.1 |
| COc1cncc(C#CC(=O)N2CCN(c3ccc(-c4cc(-c5cnn(C)c5)cn5ncc(C#N)c45)cn3)CC2)c1 [Example 272, 4-(6-(4-(3-(5-methoxypyridin-3-yl)propioloyl)piperazin-1-yl)pyridin-3-yl)-6-(1-methyl-1H-pyrazol-4-yl)pyrazolo[1,5-a]pyridine-3-carbonitrile] | 0.72 | 5.26 |
| Cn1cc(-c2cc(-c3ccc(N4CC5CC(C4)N5C(=O)C#Cc4cccnc4)nc3)c3c(C#N)cnn3c2)cn1 [Example 273, 6-(1-methyl-1H-pyrazol-4-yl)-4-(6-(6-(3-(pyridin-3-yl)propioloyl]-3,6-diazabicyclo[3.1.1]heptan-3-yl]-3-pyridin]pyrazolo[1,5-a]pyridine-3-carbonitrile] | 4.28 | 82.6 |
